In US20240309028A1, “PHOSPHOLIPID COMPOUNDS AND METHODS OF MAKING AND USING THE SAME” (Gilead Sciences, Inc., priority 2023, published 2024):

Assays:
[1] = system: Human Rhinovirus 1B (HRVIB); experiment: H1-HeLa HRV-CTG EC50, HRV1B; type: cell-based; details: Rhinovirus A, 96 h, H1-HeLa cells, MOI 0.5, 4 days, Celltiter-Glo, read-out: EC50 H1-HeLa_HRV1B_HRV-CTG 384-well Assay (per Ex. Z)
Description: Example Z: H1-HeLa HRV-CTG EC50
H1-Hela cell line (ATCC, Manassas, VA, Cat #CRL-1958) was maintained in Dulbecco's […] Essential Medium (DMEM) (Corning, New York, NY, Cat #15-018 CM) supplemented with 10% fetal bovine serum (FBS) (Hyclone, Logan, UT, Cat #SH30071-03), and 1× Penicillin-Streptomycin-L-Glutamine (Corning, New York, NY, Cat #30-009-CI). Cells were passaged 2 times per week to maintain sub-confluent densities and were used for experiments at passage 5-30. The Human Rhinovirus 1B (HRVIB) (ATCC, Manassas, VA, Cat #VR-1645), Human Rhinovirus 14 (HRV14) (ATCC, Manassas, VA, Cat #VR-284), and Human Rhinovirus 16 (HRV16) (ATCC, Manassas, VA, Cat #BR-283) was obtained through ATCC. Viral infection was monitored by determining viability of H1-HeLa cells as described below.
Test molecules are prepared in 100% DMSO in 384-well polypropylene plates (Greiner, Monroe, NC, Cat #784201) with 8 compounds per plate in grouped replicates of 4 at 10 serially diluted concentrations (1:3). […]
The test compounds were spotted to 384-well assay plates (Greiner, Monroe, NC, Cat #781091) at 200 nL per well using an Echo acoustic dispenser (Labcyte, Sunnyvale, CA). […] 40 μL per well of Celltiter-Glo reagent was added and the plates were incubated at room temperature for 15 minutes before reading the luminescence signal on an En Vision multimode plate reader (Perkin Elmer, Waltham, MA). […]

RSV strain A2 = experiment: RSV Cellomics assay for RSV A2 antiviral activity (EC50-RSV-Hep2-96-Cellomics); type: cell-based; details: human respiratory syncytial virus, HEp-2, 72 h; Hep2 cells, RSV strain A2, MOI=0.05, 3 days, RSV F protein immunofluorescence; read-out: EC50-RSV-HEp2-96-Cellomics Example B1
Method: Example B1: RSV Cellomics Assay for RSV A2 Antiviral Activity (EC50-RSV-Hep2-96-Cellomics)
8×10^3 Hep2 cells are seeded into 96 well plates in 100 μL of media (DMEM supplemented with GlutaMAX, 10% FBS and Pen/Strep) and briefly spun at 50×g for 1 minute to attach cells. Cells were further allowed to attach with overnight incubation at 37° C.+5% CO2. The following day, the media was aspirated and 100 μL of fresh DMEM media containing 2% FBS was added. A three-fold dilution series of compounds of interest are then added to the plate using the Tecan D300e dispenser and the plate is normalized to the well with the highest volume of DMSO. The cells are next infected by adding 100 μL of media containing RSV strain A2 at an MOI=0.05 and the plates incubated for 3 days at 37° C.+5% CO2. Following the incubation, the media is removed, and the cells are washed once with 250 μL PBS and fixed with 250 μL ice-cold 100% methanol for 10 minutes at 4 C. The methanol is then removed and the plates air dried for 5 minutes and then washed once with 250 μL PBS to remove any residual methanol. The wells are then blocked 60 μL/well of BlockAid (B10710, Thermo-Fisher) for 1 hour at RT on rocker at which point the blocking buffer is carefully aspirated. Primary antibody against the RSV F protein (MAB 858-1) is then diluted 1:2000 in SuperBlock (37515, Thermo Fisher) and 50 μL of the primary antibody solution is added to each well. The plates are incubated at room temperature for 1 hour with gentle agitation and then washed with 250 μL of PBS-Tween 3 times. A goat anti-mouse AlexaFluor 647 conjugated secondary antibody (Sigma, A21235) is then diluted 1:2000 and Hoescht 33342 (H3570) at 1:1000 in SuperBlock and 50 μL added to the wells for 1 hour at 37° C. After incubation the antibody solution is aspirated, and the wells are then washed with 250 μL of PBS-Tween 3 times. To keep cells from drying out, 100 μL of PBS is added to each well and the plates are sealed with black plate seal. Fluorescence at the 647 nm wavelength is measured using a Cellomics CellInsight CX7 machine. Compound activity is determined as a percentage of the % positive cells (or average intensity) compared to DMSO treated RSV infected well controls following subtraction of uninfected controls. The EC50 values are then calculated using nonlinear regression analysis in GraphPad Prism.

Structure (SMILES) | EC50 [1] [nM] | EC50 (RSV strain A2) [nM]
N#Cc1cc(F)cc(CO[C@H](CCCCCCCCCCCCCCCCCCC(F)(F)F)COP(=O)(O)OC[C@@]2(C#N)O[C@@H](c3ccc4c(N)ncnn34)[C@H](O)[C@@H]2O)c1 [Compound 2, ((2R,3S,4R,5S)-5-(4-aminopyrrolo[2,1-f][1,2,4]triazin-7-yl)-2-cyano-3,4-dihydroxytetrahydrofuran-2-yl)methyl ((R)-2-((3-cyano-5-fluorobenzyl)oxy)-21,21,21-trifluorohenicosyl) hydrogen phosphate] | 62 | 241
N#Cc1cc(F)cc(CO[C@H](COCCCCCCCCCCCCCCCCCC(F)(F)F)COP(=O)(O)OC[C@@]2(C#N)O[C@@H](c3ccc4c(N)ncnn34)[C@H](O)[C@@H]2O)c1 [Compound 1, ((2R,3S,4R,5S)-5-(4-aminopyrrolo[2,1-f][1,2,4]triazin-7-yl)-2-cyano-3,4-dihydroxytetrahydrofuran-2-yl)methyl ((R)-2-((3-cyano-5-fluorobenzyl)oxy)-3-((18,18,18-trifluorooctadecyl)oxy)propyl) hydrogen phosphate] | 12 | 76
